The SangsterLogP compilation

Assay: method code SF-AS, from DOI: 10.1002/ps.2780410210

Row | logP | Structure (SMILES)
1 | 3.42 | CC(C)(C)N(NC(=O)c1ccccc1)C(=O)c1ccc(Cl)cc1
2 | 2.27 | CC(C)(C)N(NC(=O)c1ccccc1)C(=O)c1ccccc1[N+](=O)[O-]
3 | 3.1 | Cc1cccc(C(=O)N(NC(=O)c2ccccc2)C(C)(C)C)c1C
4 | 2.56 | COc1ccc(C(=O)N(NC(=O)c2ccccc2)C(C)(C)C)cc1
5 | 2.63 | CC(C)(C)N(NC(=O)c1ccccc1)C(=O)c1ccc([N+](=O)[O-])cc1
6 | 2.99 | Cc1ccc(C(=O)N(NC(=O)c2ccccc2)C(C)(C)C)cc1
7 | 2.96 | CCc1ccccc1C(=O)N(NC(=O)c1ccccc1)C(C)(C)C
8 | 3.28 | CC(C)(C)N(NC(=O)c1ccccc1)C(=O)c1cccc(Cl)c1
9 | 2.5 | CC(C)(C)N(NC(=O)c1ccccc1)C(=O)c1ccc(C#N)cc1
10 | 2.79 | Cc1cccc(C(=O)N(NC(=O)c2ccccc2)C(C)(C)C)c1
11 | 2.73 | CC(C)(C)N(NC(=O)c1ccccc1)C(=O)c1cccc([N+](=O)[O-])c1
12 | 2.56 | COc1cccc(C(=O)N(NC(=O)c2ccccc2)C(C)(C)C)c1
13 | 3.61 | CC(C)(C)N(NC(=O)c1ccccc1)C(=O)c1cccc(C(F)(F)F)c1
14 | 3.41 | CC(C)(C)N(NC(=O)c1ccccc1)C(=O)c1cccc(Cl)c1Cl
15 | 2.56 | CC(C)(C)N(NC(=O)c1ccccc1)C(=O)c1c(Cl)cccc1Cl
16 | 2.38 | CC(C)(C)N(NC(=O)c1ccccc1)C(=O)c1ccccc1F
17 | 3.25 | CC(C)(C)N(NC(=O)c1ccccc1)C(=O)c1c(F)c(F)c(F)c(F)c1F
18 | 3.25 | Cc1ccc(C)c(C(=O)N(NC(=O)c2ccccc2)C(C)(C)C)c1
19 | 4.25 | CC(C)(C)N(NC(=O)c1ccccc1)C(=O)c1ccc(Cl)c(Cl)c1
20 | 3.49 | CC(C)(C)N(NC(=O)c1ccccc1)C(=O)c1cccc(Br)c1
21 | 2.69 | CC(C)(C)N(NC(=O)c1ccccc1)C(=O)c1ccccc1Br

Row | logP | Structure (SMILES)
22 | 3.44 | CC(C)(C)N(NC(=O)c1ccccc1)C(=O)c1cc(F)c(F)c(F)c1F
23 | 2.34 | CC(C)(C)N(NC(=O)c1ccccc1)C(=O)c1c(F)cccc1Cl
24 | 2.09 | COc1ccc(C(=O)N(NC(=O)c2ccccc2)C(C)(C)C)cc1OC
25 | 3.36 | CC(C)(C)N(NC(=O)c1ccccc1)C(=O)c1cc(Cl)ccc1Cl
26 | 2.04 | COc1ccccc1C(=O)N(NC(=O)c1ccccc1)C(C)(C)C
27 | 3.72 | CC(C)(C)N(NC(=O)c1ccccc1)C(=O)c1cccc(I)c1
28 | 2.78 | CC(C)(C)N(NC(=O)c1ccccc1)C(=O)c1cccc(F)c1
29 | 3.55 | CC(C)(C)N(NC(=O)c1ccccc1)C(=O)c1ccc(Cl)cc1Cl
30 | 2.75 | Cc1ccccc1C(=O)N(NC(=O)c1ccccc1)C(C)(C)C
31 | 3.66 | CC(C)(C)N(NC(=O)c1ccccc1)C(=O)c1ccc(Br)cc1
32 | 3.77 | CC(C)(C)N(NC(=O)c1ccccc1)C(=O)c1ccc(C(F)(F)F)cc1
33 | 3.34 | Cc1ccc(C(=O)N(NC(=O)c2ccccc2)C(C)(C)C)cc1C
34 | 2.34 | CC(C)(C)N(NC(=O)c1ccccc1)C(=O)c1cccc(C#N)c1
35 | 2.83 | CC(C)(C)N(NC(=O)c1ccccc1)C(=O)c1ccccc1I
36 | 3.57 | Cc1c(Cl)cccc1C(=O)N(NC(=O)c1ccccc1)C(C)(C)C
37 | 3.18 | Cc1ccc(C(=O)N(NC(=O)c2ccccc2)C(C)(C)C)c(C)c1
38 | 2.85 | CC(C)(C)N(NC(=O)c1ccccc1)C(=O)c1ccc(F)cc1
39 | 2.16 | CC(C)(C)N(NC(=O)c1ccccc1)C(=O)c1c(F)cccc1F
40 | 3.78 | CC(C)(C)N(NC(=O)c1ccccc1)C(=O)c1ccc(I)cc1
41 | 2.6 | CSc1ccccc1C(=O)N(NC(=O)c1ccccc1)C(C)(C)C

Row | Structure (SMILES) | logP
42 | CC(C)(C)N(NC(=O)c1ccccc1)C(=O)c1ccccc1 | 2.45
43 | CC(C)(C)N(NC(=O)c1ccccc1)C(=O)c1ccccc1C(F)(F)F | 2.85
44 | Cc1cc(C)cc(C(=O)N(NC(=O)c2ccccc2)C(C)(C)C)c1 | 3.39
